{"source": "ChEMBL document CHEMBL5724696", "about": "“Autophagy assay results for EUbOPEN Chemogenomics Library” (2024)", "type_in_all_cases": "functional, Homo sapiens", "key": {"U2OS [1]": {"test_system": "U2OS", "assay": "(§1) Here: values are normalized to the negative (DMSO; defined as 0% autophagy induction) and positive (250nM Torin1; mTOR inhibitor; defined as maximal inducer of autophagy = 100%) control compounds and represented as % of autophagy induction. […] The impact of autophagy induction on cells is complex and depends on the affected target. As such, the magnitude of a phenotype may not be equally mirrored in the %-value of autophagy induction and vice versa. The dynamics of the induction may indicate the mode of activation: e.g. activation via phosphorylation or a signaling cascade may occur fast, while activation via transcription factors may take considerably longer. […] Of note, treatment concentrations may be sub-optimal for specific compounds, leading to false negative annotations.", "conditions": "Culturing Media DMEM, 1 % Penicillin/Streptomycin, 10% Fetal bovin serum Add-On: No, Screening Media Control DMEM, Screening Media Samples DMEM"}, "U2OS [2]": {"test_system": "U2OS", "assay": "as §1", "conditions": "Culturing Media DMEM, 1 % Penicillin/Streptomycin, 10% Fetal bovin serum Add-On: No, Screening Media Control DMEM, Screening Media Samples DMEM", "remark": "listed apart in the source"}, "TERT-RPE1": {"test_system": "TERT-RPE1", "assay": "as §1", "conditions": "Compound Concentration 1 uM, Culturing Media DMEM/F12 (1:1), 1 % Penicillin/Streptomycin, 10% Fetal bovin serum Add-On: No, Screening Media Control DMEM/F12 (1:1), Screening Media Samples DMEM/F12 (1:1)"}, "[3]": {"conditions": "Compound Concentration 0.5 uM, Timepoint 12 hours"}, "[4]": {"conditions": "Compound Concentration 0.5 uM, Timepoint 24 hours"}, "[5]": {"conditions": "Compound Concentration 0.5 uM, Timepoint 36 hours"}, "[6]": {"conditions": "Compound Concentration 0.5 uM, Timepoint 60 hours"}, "[7]": {"conditions": "Compound Concentration 2 uM, Timepoint 12 hours"}, "[8]": {"conditions": "Compound Concentration 2 uM, Timepoint 24 hours"}, "[9]": {"conditions": "Compound Concentration 2 uM, Timepoint 36 hours"}, "[10]": {"conditions": "Compound Concentration 2 uM, Timepoint 60 hours"}, "[11]": {"conditions": "Compound Concentration 10 uM, Timepoint 12 hours"}, "[12]": {"conditions": "Compound Concentration 10 uM, Timepoint 24 hours"}, "[13]": {"conditions": "Compound Concentration 10 uM, Timepoint 36 hours"}, "[14]": {"conditions": "Compound Concentration 10 uM, Timepoint 60 hours"}}}
{"compound": "Cl.Cl.Cl.c1ccc(N2CCN(Cc3nc4ccccc4[nH]3)CC2)nc1", "values": [{"measurement": "autophagy induction", "setting": "U2OS [1]; [3]", "result": -5.698, "unit": "%"}, {"measurement": "autophagy induction", "setting": "U2OS [1]; [4]", "result": -1.19, "unit": "%"}, {"measurement": "autophagy induction", "setting": "U2OS [1]; [5]", "result": -1.541, "unit": "%"}, {"measurement": "autophagy induction", "setting": "U2OS [1]; [6]", "result": -2680.35, "unit": "%"}, {"measurement": "autophagy induction", "setting": "U2OS [1]; [7]", "result": -2.768, "unit": "%"}, {"measurement": "autophagy induction", "setting": "U2OS [1]; [8]", "result": -5.039, "unit": "%"}, {"measurement": "autophagy induction", "setting": "U2OS [1]; [9]", "result": -4.313, "unit": "%"}, {"measurement": "autophagy induction", "setting": "U2OS [1]; [10]", "result": -2193.41, "unit": "%"}, {"measurement": "autophagy induction", "setting": "U2OS [1]; [11]", "result": 1.805, "unit": "%"}, {"measurement": "autophagy induction", "setting": "U2OS [1]; [12]", "result": -0.2364, "unit": "%"}, {"measurement": "autophagy induction", "setting": "U2OS [1]; [13]", "result": -2.475, "unit": "%"}, {"measurement": "autophagy induction", "setting": "U2OS [1]; [14]", "result": 114.324, "unit": "%"}, {"measurement": "autophagy induction", "setting": "U2OS [2]; [3]", "result": 6.453, "unit": "%"}, {"measurement": "autophagy induction", "setting": "U2OS [2]; [4]", "result": 3.88, "unit": "%"}, {"measurement": "autophagy induction", "setting": "U2OS [2]; [5]", "result": 1.316, "unit": "%"}, {"measurement": "autophagy induction", "setting": "U2OS [2]; [6]", "result": -5.738, "unit": "%"}, {"measurement": "autophagy induction", "setting": "U2OS [2]; [7]", "result": 16.1665, "unit": "%"}, {"measurement": "autophagy induction", "setting": "U2OS [2]; [8]", "result": 12.3628, "unit": "%"}, {"measurement": "autophagy induction", "setting": "U2OS [2]; [9]", "result": 4.3069, "unit": "%"}, {"measurement": "autophagy induction", "setting": "U2OS [2]; [10]", "result": -1.986, "unit": "%"}, {"measurement": "autophagy induction", "setting": "U2OS [2]; [11]", "result": 1.702, "unit": "%"}, {"measurement": "autophagy induction", "setting": "U2OS [2]; [12]", "result": -2.316, "unit": "%"}, {"measurement": "autophagy induction", "setting": "U2OS [2]; [13]", "result": -1.149, "unit": "%"}, {"measurement": "autophagy induction", "setting": "U2OS [2]; [14]", "result": 1.595, "unit": "%"}]}
{"compound": "CCc1ccc(OCc2ccccc2C(=O)Nc2ccc3nc(C)cc(N)c3c2)cc1.Cl", "values": [{"measurement": "autophagy induction", "setting": "U2OS [1]; [3]", "result": 12.0081, "unit": "%"}, {"measurement": "autophagy induction", "setting": "U2OS [1]; [4]", "result": 1.625, "unit": "%"}, {"measurement": "autophagy induction", "setting": "U2OS [1]; [5]", "result": -0.1664, "unit": "%"}, {"measurement": "autophagy induction", "setting": "U2OS [1]; [6]", "result": 114.695, "unit": "%"}, {"measurement": "autophagy induction", "setting": "U2OS [1]; [7]", "result": -46.9081, "unit": "%"}, {"measurement": "autophagy induction", "setting": "U2OS [1]; [8]", "result": -13.0517, "unit": "%"}, {"measurement": "autophagy induction", "setting": "U2OS [1]; [9]", "result": 3.022, "unit": "%"}, {"measurement": "autophagy induction", "setting": "U2OS [1]; [10]", "result": 113.026, "unit": "%"}, {"measurement": "autophagy induction", "setting": "U2OS [1]; [11]", "result": 98.6173, "unit": "%"}, {"measurement": "autophagy induction", "setting": "U2OS [1]; [12]", "result": 63.101, "unit": "%"}, {"measurement": "autophagy induction", "setting": "U2OS [1]; [13]", "result": 54.8449, "unit": "%"}, {"measurement": "autophagy induction", "setting": "U2OS [1]; [14]", "result": 109.07, "unit": "%"}, {"measurement": "autophagy induction", "setting": "U2OS [2]; [3]", "result": 21.0143, "unit": "%"}, {"measurement": "autophagy induction", "setting": "U2OS [2]; [4]", "result": 14.8244, "unit": "%"}, {"measurement": "autophagy induction", "setting": "U2OS [2]; [5]", "result": 13.2935, "unit": "%"}, {"measurement": "autophagy induction", "setting": "U2OS [2]; [6]", "result": 10.1945, "unit": "%"}, {"measurement": "autophagy induction", "setting": "U2OS [2]; [7]", "result": 66.4638, "unit": "%"}, {"measurement": "autophagy induction", "setting": "U2OS [2]; [8]", "result": 63.0279, "unit": "%"}, {"measurement": "autophagy induction", "setting": "U2OS [2]; [9]", "result": 63.192, "unit": "%"}, {"measurement": "autophagy induction", "setting": "U2OS [2]; [10]", "result": 56.3816, "unit": "%"}, {"measurement": "autophagy induction", "setting": "U2OS [2]; [11]", "result": 203.914, "unit": "%"}, {"measurement": "autophagy induction", "setting": "U2OS [2]; [12]", "result": 166.946, "unit": "%"}, {"measurement": "autophagy induction", "setting": "U2OS [2]; [13]", "result": 154.332, "unit": "%"}, {"measurement": "autophagy induction", "setting": "U2OS [2]; [14]", "result": 150.102, "unit": "%"}]}
{"compound": "Cn1cc(C(=O)O)c2ccc(N3CCC(OCc4c(-c5c(Cl)cccc5Cl)noc4C4CC4)CC3)cc21", "note": "[TERN-101]", "values": [{"measurement": "autophagy induction", "setting": "TERT-RPE1; Timepoint 12 hours", "result": -2.759, "unit": "%"}, {"measurement": "autophagy induction", "setting": "TERT-RPE1; Timepoint 24 hours", "result": -6.198, "unit": "%"}, {"measurement": "autophagy induction", "setting": "TERT-RPE1; Timepoint 36 hours", "result": -6.322, "unit": "%"}, {"measurement": "autophagy induction", "setting": "TERT-RPE1; Timepoint 60 hours", "result": 3.921, "unit": "%"}]}
{"compound": "CCO[C@@H](Cc1ccc(OCCc2ccc(OS(C)(=O)=O)cc2)cc1)C(=O)O", "note": "[TESAGLITAZAR]", "values": [{"measurement": "autophagy induction", "setting": "TERT-RPE1; Timepoint 12 hours", "result": -2.81, "unit": "%"}, {"measurement": "autophagy induction", "setting": "TERT-RPE1; Timepoint 24 hours", "result": -1.872, "unit": "%"}, {"measurement": "autophagy induction", "setting": "TERT-RPE1; Timepoint 36 hours", "result": 4.96, "unit": "%"}, {"measurement": "autophagy induction", "setting": "TERT-RPE1; Timepoint 60 hours", "result": 2.851, "unit": "%"}]}
{"compound": "O=C(O)Cc1cc(I)c(Oc2ccc(O)c(I)c2)c(I)c1", "note": "[TIRATRICOL]", "values": [{"measurement": "autophagy induction", "setting": "TERT-RPE1; Timepoint 12 hours", "result": -9.01, "unit": "%"}, {"measurement": "autophagy induction", "setting": "TERT-RPE1; Timepoint 24 hours", "result": -9.767, "unit": "%"}, {"measurement": "autophagy induction", "setting": "TERT-RPE1; Timepoint 36 hours", "result": -3.577, "unit": "%"}, {"measurement": "autophagy induction", "setting": "TERT-RPE1; Timepoint 60 hours", "result": 11.3725, "unit": "%"}]}
{"compound": "O=C(O)c1cc(F)c2nc(N3[C@@H]4CC[C@H]3C[C@@H](OCc3c(-c5ccccc5OC(F)(F)F)noc3C3CC3)C4)sc2c1", "note": "[TROPIFEXOR]", "values": [{"measurement": "autophagy induction", "setting": "TERT-RPE1; Timepoint 12 hours", "result": -16.0144, "unit": "%"}, {"measurement": "autophagy induction", "setting": "TERT-RPE1; Timepoint 24 hours", "result": -6.889, "unit": "%"}, {"measurement": "autophagy induction", "setting": "TERT-RPE1; Timepoint 36 hours", "result": 7.971, "unit": "%"}, {"measurement": "autophagy induction", "setting": "TERT-RPE1; Timepoint 60 hours", "result": -23.0565, "unit": "%"}]}
{"compound": "CC(C)OC(=O)C1=CN(C(=O)c2ccc(F)c(F)c2)CC(C)(C)c2c1[nH]c1ccccc21", "note": "[TUROFEXORATE ISOPROPYL]", "values": [{"measurement": "autophagy induction", "setting": "TERT-RPE1; Timepoint 12 hours", "result": -4.447, "unit": "%"}, {"measurement": "autophagy induction", "setting": "TERT-RPE1; Timepoint 24 hours", "result": -6.097, "unit": "%"}, {"measurement": "autophagy induction", "setting": "TERT-RPE1; Timepoint 36 hours", "result": -6.537, "unit": "%"}, {"measurement": "autophagy induction", "setting": "TERT-RPE1; Timepoint 60 hours", "result": 2.1006, "unit": "%"}]}
